Results as given in patent US9624175B2, “Fused-bicyclic aryl quinolinone derivatives as mutant-isocitrate dehydrogenase inhibitors” (Forma Therapeutics, Inc., priority 2015, dated 2017).

Assays:
[1] = biological target: IDH1-R132H recombinant protein (Homo sapiens (Human), UniProt O75874, R132H); test: IDH1-R132H enzymatic assay (NADPH consumption, diaphorase/resazurin readout); type: biochemical; conditions: inhibition of NADPH consumption, 30 nM IDH1-R132H; read-out: Enzyme IDH1 R132H IC50
Method: (§1) Assays were performed in a 384-well black plate. An aliquot of 250 nL of compound was incubated with 10 μL of 30 nM IDH1-R132H or 10 nM IDH1-R132C recombinant protein in assay buffer (50 mM Tris pH=7.5, 150 mM NaCl, 5 mM MgCl2, 0.1% (w/v) Bovine Serum Albumin, and 0.01% Triton X-100) in each well at 25° C. for 15 minutes. After the plate was centrifuged briefly, an aliquot of 10 μL of 2 mM α-ketoglutarate and 20 μM NADPH solution prepared in assay buffer was then added to each well and the reaction was maintained at 25° C. for 45 minutes. An aliquot of 10 μL of diaphorase solution (0.15 U/mL diaphorase and 30 μM Resazurin in assay buffer) was added to each well. The plate was maintained at 25° C. for 15 minutes and then read on a plate reader with excitation and emission wavelengths at 535 nm and 590 nm, respectively. The IC50 of a given compound was calculated by fitting the dose response curve of inhibition of NADPH consumption at a given concentration with the four parameter logistic equation.

[2] = biological target: IDH1-R132C recombinant protein (Homo sapiens (Human), UniProt O75874, R132C); test: IDH1-R132C enzymatic assay (NADPH consumption, diaphorase/resazurin readout); type: biochemical; conditions: inhibition of NADPH consumption, 10 nM IDH1-R132C; read-out: Enzyme IDH1 R132C IC50
Sequence of IDH1-R132C recombinant protein (O75874 whole entry R132C): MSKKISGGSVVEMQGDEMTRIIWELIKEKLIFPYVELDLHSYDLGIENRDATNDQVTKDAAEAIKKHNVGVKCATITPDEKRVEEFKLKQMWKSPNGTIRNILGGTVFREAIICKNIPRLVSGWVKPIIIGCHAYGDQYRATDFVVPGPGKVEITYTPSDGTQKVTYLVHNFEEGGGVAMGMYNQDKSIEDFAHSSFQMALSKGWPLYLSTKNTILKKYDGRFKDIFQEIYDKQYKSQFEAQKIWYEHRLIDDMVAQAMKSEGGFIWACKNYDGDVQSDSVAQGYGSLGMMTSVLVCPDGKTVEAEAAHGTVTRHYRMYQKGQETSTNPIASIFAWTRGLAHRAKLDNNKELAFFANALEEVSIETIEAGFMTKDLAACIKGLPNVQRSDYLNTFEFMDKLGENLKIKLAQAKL
Method: as §1

Sequence of IDH1-R132H recombinant protein (O75874 whole entry R132H): as the sequence (O75874 whole entry R132C) above, with C132H counted along it

## COc1cc2[nH]c(=O)c(C(C)Nc3ncc4c(n3)N(C)C(=O)OC4)cc2cc1Cl (racemic) [Compound I-50, 6-chloro-7-methoxy-3-[1-({1-methyl-2-oxo-1H,2H,4H-pyrimido[4,5-d][1,3]oxazin-7-yl}amino)ethyl]-1,2-dihydroquinolin-2-one]
[1]
  IC50: < 100 nM
[2]
  IC50: < 100 nM

## O=c1[nH]c2ccc(Cl)cc2cc1CNc1cccc2ocnc12 [Compound I-1, 3-{[(1,3-benzoxazol-4-yl)amino]methyl}-6-chloro-1,2-dihydroquinolin-2-one]
[1]
  IC50: 100 to 1000 nM
[2]
  IC50: 100 to 1000 nM

## O=c1ccc2cc(NCc3cc4cc(Cl)ccc4[nH]c3=O)ccc2o1 [Compound I-4, 6-chloro-3-{[(2-oxo-2H-chromen-6-yl)amino]methyl}-1,2-dihydroquinolin-2-one]
[1]
  IC50: 100 to 1000 nM
[2]
  IC50: > 10000 nM

## O=c1[nH]c2ccc(Cl)cc2cc1CNc1ccc2c(c1)OCCO2 [Compound I-33, 6-chloro-3-{[(2,3-dihydro-1,4-benzodioxin-6-yl)amino]methyl}-1,2-dihydroquinolin-2-one]
[1]
  IC50: > 10000 nM

## COc1ccc2[nH]c(=O)c(CNc3ccc4cn[nH]c4c3)cc2c1 [Compound I-34, 3-{[(1H-indazol-6-yl)amino]methyl}-6-methoxy-1,2-dihydroquinolin-2-one]
[1]
  IC50: > 10000 nM

## COc1ccc2[nH]c(=O)c(CNc3ccc4nc(C)ccc4c3)cc2c1 [Compound I-35, 6-methoxy-3-{[(2-methylquinolin-6-yl)amino]methyl}-1,2-dihydroquinolin-2-one]
[1]
  IC50: > 10000 nM

## COc1ccc2[nH]c(=O)c(CNc3ccc4ncsc4c3)cc2c1 [Compound I-36, 3-{[(1,3-benzothiazol-6-yl)amino]methyl}-6-methoxy-1,2-dihydroquinolin-2-one]
[1]
  IC50: > 10000 nM

## Cc1ccc2cc(NCc3cc4cc(C)c(C)cc4[nH]c3=O)ccc2n1 [Compound I-37, 6,7-dimethyl-3-{[(2-methylquinolin-6-yl)amino]methyl}-1,2-dihydroquinolin-2-one]
[1]
  IC50: > 10000 nM

## O=c1[nH]c2ccc(Cl)cc2cc1CNc1ccc2[nH]ncc2c1 [Compound I-38, 6-chloro-3-{[(1H-indazol-5-yl)amino]methyl}-1,2-dihydroquinolin-2-one]
[1]
  IC50: > 10000 nM

## COc1ccc2[nH]c(=O)c(CNc3ccc4ncccc4c3)cc2c1 [Compound I-39, 6-methoxy-3-{[(quinolin-6-yl)amino]methyl}-1,2-dihydroquinolin-2-one]
[1]
  IC50: > 10000 nM

## Cc1cc2cc(CNc3ccc4ncsc4c3)c(=O)[nH]c2cc1C [Compound I-40, 3-{[(1,3-benzothiazol-6-yl)amino]methyl}-6,7-dimethyl-1,2-dihydroquinolin-2-one]
[1]
  IC50: > 10000 nM

## CC(C)(C)c1ccc2[nH]c(=O)c(CNc3ccc4[nH]ncc4c3)cc2c1 [Compound I-41, 6-tert-butyl-3-{[(1H-indazol-5-yl)amino]methyl}-1,2-dihydroquinolin-2-one]
[1]
  IC50: 1000 to 10000 nM

## CC(=O)N1CCc2c1ccnc2N[C@@H](C)c1cc2cc(Cl)ccc2[nH]c1=O [Compound I-42, 3-[(1S)-1-({1-acetyl-1H,2H,3H-pyrrolo[3,2-c]pyridin-4-yl}amino)ethyl]-6-chloro-1,2-dihydroquinolin-2-one]
[1]
  IC50: 100 to 1000 nM
[2]
  IC50: 1000 to 10000 nM

## C[C@H](Nc1nccc2c1CCN2S(C)(=O)=O)c1cc2cc(Cl)ccc2[nH]c1=O [Compound I-43, 6-chloro-3-[(1S)-1-({1-methanesulfonyl-1H,2H,3H-pyrrolo[3,2-c]pyridin-4-yl}amino)ethyl]-1,2-dihydroquinolin-2-one]
[1]
  IC50: 1000 to 10000 nM

## CC(=O)N1CCOc2c1ccnc2N[C@@H](C)c1cc2cc(Cl)ccc2[nH]c1=O [Compound I-44, 3-[(1S)-1-({1-acetyl-1H,2H,3H-pyrido[3,4-b][1,4]oxazin-5-yl}amino)ethyl]-6-chloro-1,2-dihydroquinolin-2-one]
[1]
  IC50: 1000 to 10000 nM
[2]
  IC50: > 10000 nM

## C[C@H](Nc1ncc2cn[nH]c2n1)c1cc2cc(Cl)ccc2[nH]c1=O [Compound I-45, 6-chloro-3-[(1S)-1-({1H-pyrazolo[3,4-d]pyrimidin-6-yl}amino)ethyl]-1,2-dihydroquinolin-2-one]
[1]
  IC50: 100 to 1000 nM
[2]
  IC50: 1000 to 10000 nM
